Source: patent US20260015358A1, “BICYCLIC DERIVATIVES, COMPOSITIONS AND USES THEREOF” (Danatlas Pharmaceuticals Co., Ltd., priority 2023, published 2026)

Key:
[1] = target: T1, WRN [UniPro: Q14191 (WRN_HUMAN), N500-C946] (Homo sapiens (Human), UniProt Q14191); test: WRN unwinding assay (FORKF DNA, fluorescence); format: biochemical; settings: Table 14
[2] = target: T1, WRN [UniPro: Q14191 (WRN_HUMAN), N500-C946]; test: WRN ATPase assay (ADP-Glo); format: biochemical; settings: WRN enzymatic activity assay

T1 sequence (Q14191 500-946): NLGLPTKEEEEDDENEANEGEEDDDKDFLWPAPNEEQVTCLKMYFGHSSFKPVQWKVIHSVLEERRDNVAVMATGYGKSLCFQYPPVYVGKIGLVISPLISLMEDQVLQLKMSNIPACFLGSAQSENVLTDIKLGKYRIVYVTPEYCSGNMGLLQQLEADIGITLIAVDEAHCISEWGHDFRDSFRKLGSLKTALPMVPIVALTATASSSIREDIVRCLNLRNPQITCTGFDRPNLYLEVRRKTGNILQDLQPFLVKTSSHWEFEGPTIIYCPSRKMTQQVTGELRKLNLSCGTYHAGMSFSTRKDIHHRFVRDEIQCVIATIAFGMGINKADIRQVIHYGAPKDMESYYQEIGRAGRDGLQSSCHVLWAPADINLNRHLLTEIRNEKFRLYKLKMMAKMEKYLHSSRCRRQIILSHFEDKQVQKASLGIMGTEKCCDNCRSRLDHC

| SMILES | IC50 [1] | IC50 [2] |
| --- | --- | --- |
| CCc1c(N2CCN(C(=O)c3cc4c(O)ccnc4o3)CC2)c(=O)n2nc(C3=CCOCC3)nc2n1CC(=O)Nc1ccc(C(F)(F)F)cc1Cl [Example 88, N-(2-Chloro-4-(trifluoromethyl)phenyl)-2-(2-(3,6-dihydro-2H-pyran-4-yl)-5-ethyl-6-(4-(4-hydroxyfuro[2,3-b]pyridine-2-carbonyl)piperazin-1-yl)-7-oxo-[1,2,4]triazolo[1,5-a]pyrimidin-4(7H)-yl)acetamide] | < 100 nM | < 100 nM |
| CCc1c(N2CCN(C(=O)C(N)=O)CC2)c(=O)n2nc(C3=CCOCC3)nc2n1CC(=O)Nc1ccc(C(F)(F)F)cc1Cl [Example 89, 2-(6-(4-(2-Amino-2-oxoacetyl)piperazin-1-yl)-2-(3,6-dihydro-2H-pyran-4-yl)-5-ethyl-7-oxo-[1,2,4]triazolo[1,5-a]pyrimidin-4(7H)-yl)-N-(2-chloro-4-(trifluoromethyl)phenyl)acetamide] | < 100 nM | < 100 nM |
| CCc1c(N2CCN(C(=O)c3cnc4cc(C)cn4c3O)CC2)c(=O)n2nc(C3=CCOCC3)nc2n1CC(=O)Nc1ccc(C(F)(F)F)cc1Cl [Example 92, N-(2-Chloro-4-(trifluoromethyl)phenyl)-2-(2-(3,6-dihydro-2H-pyran-4-yl)-5-ethyl-6-(4-(4-hydroxy-7-methylpyrrolo[1,2-a]pyrimidine-3-carbonyl)piperazin-1-yl)-7-oxo-[1,2,4]triazolo[1,5-a]pyrimidin-4(7H)-yl)acetamide] | < 100 nM | < 100 nM |
| CCc1c(N2CCN(C(=O)CNC(=O)c3ccccc3)CC2)c(=O)n2nc(C3=CCOCC3)nc2n1CC(=O)Nc1ccc(C(F)(F)F)cc1Cl [Example 93, N-(2-(4-(4-(2-((2-Chloro-4-(trifluoromethyl)phenyl)amino)-2-oxoethyl)-2-(3,6-dihydro-2H-pyran-4-yl)-5-ethyl-7-oxo-4,7-dihydro-[1,2,4]triazolo[1,5-a]pyrimidin-6-yl)piperazin-1-yl)-2-oxoethyl)benzamide] | < 100 nM | < 100 nM |
| CCc1c(N2CCN(C(=O)CNC(=O)c3ccncc3)CC2)c(=O)n2nc(C3=CCOCC3)nc2n1CC(=O)Nc1ccc(C(F)(F)F)cc1Cl [Example 96, N-(2-(4-(4-(2-((2-Chloro-4-(trifluoromethyl)phenyl)amino)-2-oxoethyl)-2-(3,6-dihydro-2H-pyran-4-yl)-5-ethyl-7-oxo-4,7-dihydro-[1,2,4]triazolo[1,5-a]pyrimidin-6-yl)piperazin-1-yl)-2-oxoethyl)isonicotinamide] | < 100 nM | < 100 nM |
| CCc1c(N2CCN(C(=O)CNC(=O)c3ccccc3F)CC2)c(=O)n2nc(C3=CCOCC3)nc2n1CC(=O)Nc1ccc(C(F)(F)F)cc1Cl [Example 97, N-(2-(4-(4-(2-((2-Chloro-4-(trifluoromethyl)phenyl)amino)-2-oxoethyl)-2-(3,6-dihydro-2H-pyran-4-yl)-5-ethyl-7-oxo-4,7-dihydro-[1,2,4]triazolo[1,5-a]pyrimidin-6-yl)piperazin-1-yl)-2-oxoethyl)-2-fluorobenzamide] | < 100 nM | < 100 nM |
| CCc1c(N2CCN(C(=O)CNC(=O)c3ccc(F)cc3)CC2)c(=O)n2nc(C3=CCOCC3)nc2n1CC(=O)Nc1ccc(C(F)(F)F)cc1Cl [Example 98, N-(2-(4-(4-(2-((2-Chloro-4-(trifluoromethyl)phenyl)amino)-2-oxoethyl)-2-(3,6-dihydro-2H-pyran-4-yl)-5-ethyl-7-oxo-4,7-dihydro-[1,2,4]triazolo[1,5-a]pyrimidin-6-yl)piperazin-1-yl)-2-oxoethyl)-4-fluorobenzamide] | < 100 nM | < 100 nM |
| CCc1c(N2CCN(C(=O)CNC(=O)c3nccs3)CC2)c(=O)n2nc(C3=CCOCC3)nc2n1CC(=O)Nc1ccc(C(F)(F)F)cc1Cl [Example 100, N-(2-(4-(4-(2-((2-Chloro-4-(trifluoromethyl)phenyl)amino)-2-oxoethyl)-2-(3,6-dihydro-2H-pyran-4-yl)-5-ethyl-7-oxo-4,7-dihydro-[1,2,4]triazolo[1,5-a]pyrimidin-6-yl)piperazin-1-yl)-2-oxoethyl)thiazole-2-carboxamide] | < 100 nM | < 100 nM |
| CCc1c(N2CCN(C(=O)CNC(=O)c3ccn(C)n3)CC2)c(=O)n2nc(C3=CCOCC3)nc2n1CC(=O)Nc1ccc(C(F)(F)F)cc1Cl [Example 102, N-(2-(4-(4-(2-((2-Chloro-4-(trifluoromethyl)phenyl)amino)-2-oxoethyl)-2-(3,6-dihydro-2H-pyran-4-yl)-5-ethyl-7-oxo-4,7-dihydro-[1,2,4]triazolo[1,5-a]pyrimidin-6-yl)piperazin-1-yl)-2-oxoethyl)-1-methyl-1H-pyrazole-3-carboxamide] | < 100 nM | < 100 nM |
| CCc1c(N2CCN(C(=O)CNC(=O)c3cnn(C)c3)CC2)c(=O)n2nc(C3=CCOCC3)nc2n1CC(=O)Nc1ccc(C(F)(F)F)cc1Cl [Example 103, N-(2-(4-(4-(2-((2-Chloro-4-(trifluoromethyl)phenyl)amino)-2-oxoethyl)-2-(3,6-dihydro-2H-pyran-4-yl)-5-ethyl-7-oxo-4,7-dihydro-[1,2,4]triazolo[1,5-a]pyrimidin-6-yl)piperazin-1-yl)-2-oxoethyl)-1-methyl-1H-pyrazole-4-carboxamide] | < 100 nM | < 100 nM |
| CCc1c(N2CCN(C(=O)CNC(=O)c3cccc(Cl)c3Cl)CC2)c(=O)n2nc(C3=CCOCC3)nc2n1CC(=O)Nc1ccc(C(F)(F)F)cc1Cl [Example 104, 2,3-Dichloro-N-(2-(4-(4-(2-((2-chloro-4-(trifluoromethyl)phenyl)amino)-2-oxoethyl)-2-(3,6-dihydro-2H-pyran-4-yl)-5-ethyl-7-oxo-4,7-dihydro-[1,2,4]triazolo[1,5-a]pyrimidin-6-yl)piperazin-1-yl)-2-oxoethyl)benzamide] | < 100 nM | 100 to 1000 nM |

Now from value to compound:

| IC50 [1] | IC50 [2] | SMILES |
| --- | --- | --- |
| 100 to 1000 nM | < 100 nM | CCc1c(N2CCN(C(=O)c3cccc4cn[nH]c34)CC2)c(=O)n2nc(C3=CCOCC3)nc2n1CC(=O)Nc1ccc(C(F)(F)F)cc1Cl [Example 90, 2-(6-(4-(1H-Indazole-7-carbonyl)piperazin-1-yl)-2-(3,6-dihydro-2H-pyran-4-yl)-5-ethyl-7-oxo-[1,2,4]triazolo[1,5-a]pyrimidin-4(7H)-yl)-N-(2-chloro-4-(trifluoromethyl)phenyl)acetamide] |
| < 100 nM | < 100 nM | CCCC(=O)NCC(=O)N1CCN(c2c(CC)n(CC(=O)Nc3ccc(C(F)(F)F)cc3Cl)c3nc(C4=CCOCC4)nn3c2=O)CC1 [Example 94, N-(2-(4-(4-(2-((2-Chloro-4-(trifluoromethyl)phenyl)amino)-2-oxoethyl)-2-(3,6-dihydro-2H-pyran-4-yl)-5-ethyl-7-oxo-4,7-dihydro-[1,2,4]triazolo[1,5-a]pyrimidin-6-yl)piperazin-1-yl)-2-oxoethyl)butyramide] |
| < 100 nM | < 100 nM | CCc1c(N2CCN(C(=O)CNC(=O)c3ccccn3)CC2)c(=O)n2nc(C3=CCOCC3)nc2n1CC(=O)Nc1ccc(C(F)(F)F)cc1Cl [Example 95, N-(2-(4-(4-(2-((2-Chloro-4-(trifluoromethyl)phenyl)amino)-2-oxoethyl)-2-(3,6-dihydro-2H-pyran-4-yl)-5-ethyl-7-oxo-4,7-dihydro-[1,2,4]triazolo[1,5-a]pyrimidin-6-yl)piperazin-1-yl)-2-oxoethyl)picolinamide] |
| < 100 nM | < 100 nM | CCc1c(N2CCN(C(=O)CNC(=O)c3cccc(F)c3)CC2)c(=O)n2nc(C3=CCOCC3)nc2n1CC(=O)Nc1ccc(C(F)(F)F)cc1Cl [Example 99, N-(2-(4-(4-(2-((2-Chloro-4-(trifluoromethyl)phenyl)amino)-2-oxoethyl)-2-(3,6-dihydro-2H-pyran-4-yl)-5-ethyl-7-oxo-4,7-dihydro-[1,2,4]triazolo[1,5-a]pyrimidin-6-yl)piperazin-1-yl)-2-oxoethyl)-3-fluorobenzamide] |
| < 100 nM | < 100 nM | CCc1c(N2CCN(C(=O)CNC(=O)c3ccn[nH]3)CC2)c(=O)n2nc(C3=CCOCC3)nc2n1CC(=O)Nc1ccc(C(F)(F)F)cc1Cl [Example 101, N-(2-(4-(4-(2-((2-Chloro-4(trifluoromethyl)phenyl)amino)-2-oxoethyl)-2-(3,6-dihydro-2H-pyran-4-yl)-5-ethyl-7-oxo-4,7-dihydro-[1,2,4]triazolo[1,5-a]pyrimidin-6-yl)piperazin-1-yl)-2-oxoethyl)-1H-pyrazole-5-carboxamide] |
| < 100 nM | 100 to 1000 nM | CCc1c(N2CCN(C(=O)CNC(=O)c3csc(C)n3)CC2)c(=O)n2nc(C3=CCOCC3)nc2n1CC(=O)Nc1ccc(C(F)(F)F)cc1Cl [Example 105, N-(2-(4-(4-(2-((2-Chloro-4-(trifluoromethyl)phenyl)amino)-2-oxoethyl)-2-(3,6-dihydro-2H-pyran-4-yl)-5-ethyl-7-oxo-4,7-dihydro-[1,2,4]triazolo[1,5-a]pyrimidin-6-yl)piperazin-1-yl)-2-oxoethyl)-2-methylthiazole-4-carboxamide] |
| < 100 nM | 100 to 1000 nM | CCc1c(N2CCN(C(=O)CNC(=O)c3ncc[nH]3)CC2)c(=O)n2nc(C3=CCOCC3)nc2n1CC(=O)Nc1ccc(C(F)(F)F)cc1Cl [Example 106, N-(2-(4-(4-(2-((2-Chloro-4-(trifluoromethyl)phenyl)amino)-2-oxoethyl)-2-(3,6-dihydro-2H-pyran-4-yl)-5-ethyl-7-oxo-4,7-dihydro-[1,2,4]triazolo[1,5-a]pyrimidin-6-yl)piperazin-1-yl)-2-oxoethyl)-1H-imidazole-2-carboxamide] |
| < 100 nM | < 100 nM | CCc1c(N2CCN(C(=O)CNC(=O)c3cc(C)on3)CC2)c(=O)n2nc(C3=CCOCC3)nc2n1CC(=O)Nc1ccc(C(F)(F)F)cc1Cl [Example 107, N-(2-(4-(4-(2-((2-Chloro-4-(trifluoromethyl)phenyl)amino)-2-oxoethyl)-2-(3,6-dihydro-2H-pyran-4-yl)-5-ethyl-7-oxo-4,7-dihydro-[1,2,4]triazolo[1,5-a]pyrimidin-6-yl)piperazin-1-yl)-2-oxoethyl)-5-methylisoxazole-3-carboxamide] |
